Assay results: publication PMC11944515, “Host-Mediated Antimicrobial Effects and NLRP3 Inflammasome Modulation by Caulerpin and Its Derivatives in Macrophage Models of Mycobacterial Infections” (Microorganisms, 2025)

How the values were obtained:
[1] = tested on: M. tuberculosis H37Ra in RAW 264.7 macrophages; assay: Preventive effects (pre-incubation) in M. tuberculosis-infected RAW 264.7 cells (CFU); assay type: cell-based, Mycobacterium tuberculosis; conditions: for effect on M. tuberculosis CFU counts after pre-incubation and re-treatment: 12 h after infection
Experimental: For the second cellular infection test with M. tuberculosis H37Ra, RAW 264.7 cells were seeded in 96-well culture plates at a density of 4 × 10 ^3 cells/well in DMEM medium (with 10% FBS, without antibiotics) and incubated overnight at 37 °C with 5% CO2. Cells were pre-incubated with the CP (15 µM), DE (15 µM), and CA (30 µM) compounds. Infection of RAW 264.7 cells with M. tuberculosis was performed at a multiplicity of infection of 1:1 for 3 h at 37 °C with 5% CO2 [20]. Infected RAW 264.7 were then lysed with 0.1% Triton-X100, and suspensions were diluted and plated on Middlebrook 7H10 agar plus OADC. Remaining wells were then re-treated with the test substances in DMEM medium. Macrophages were lysed after 12 h and plated on Middlebrook 7H10 containing OADC prior to CFU counting. CFU/well was determined as previously described in the infection experiments using macrophages and M. smegmatis.

[2] = tested on: M. smegmatis within RAW 264.7 macrophages; assay: Therapeutic potential in M. smegmatis-infected RAW 264.7 cells (CFU); assay type: cell-based, Mycobacterium smegmatis; conditions: 24 h of treatment after infection; for reduction of bacterial burden, M. smegmatis within RAW 264.7: 15 μM, vs untreated controls
Experimental: For the first in vitro infection test with M. smegmatis, RAW 264.7 were seeded in 96-well culture plates at a density of 1 × 10^4 cells/well in DMEM medium (with 10% FBS, without antibiotics) and incubated overnight at 37 °C with 5% CO2 [20]. Infection of RAW 264.7 cells with M. smegmatis mc^2155 was performed at a multiplicity of infection of 1:1 for 2 h at 37 °C with 5% CO2. The medium with non-internalized bacteria was removed, and infected cells were then treated with the tested substances in DMEM: CP (15 µM, 7.5 µM and 3.25 µM), CA (30 µM, 15 µM, 7.5 µM and 3.25 µM), DE (15 µM, 7.5 µM and 3.25 µM), and DP (15 µM, 7.5 µM and 3.25 µM). Macrophages were lysed after 24 h with 0.1% Triton–X100, and these suspensions were diluted and plated on LB. CFU was determined after incubation of plates for 3 days at 37 °C. CFU numbers were expressed as log (CFU/well).

[3] = tested on: M. tuberculosis H37Ra in RAW 264.7 macrophages; assay: Therapeutic potential in M. tuberculosis-infected RAW 264.7 cells (CFU); assay type: cell-based, Mycobacterium tuberculosis; conditions: for effect on M. tuberculosis in RAW 264.7: DE 15 μM, CA 30 and 15 μM, 24 h and 48 h
Experimental: For the infection test with M. tuberculosis H37Ra, RAW 264.7 were seeded in 96-well culture plates at a density of 4 × 10^3 cells/well in DMEM medium (with 10% FBS, without antibiotics) and incubated overnight at 37 °C with 5% CO2 [20]. Infection of RAW 264.7 cells with M. tuberculosis was performed at a multiplicity of infection of 1:1 for 3 h at 37 °C with 5% CO2. The medium with non-internalized bacteria was removed and infected cells were then treated with the tested substances in DMEM:CP (15 µM, 7.5 µM, and 3.25 µM), CA (30 µM), and DE (15 µM) for 24 h and CA (30 µM and 15 µM) and DE (15 µM) for 48 h. Macrophages were lysed after incubations with 0.1% Triton–X100, and these suspensions were diluted and plated on Middlebrook 7H10 plus 10% OADC. Plates were incubated for 4 weeks at 37 °C and data were expressed as log10(CFU/well).

[4] = tested on: M. smegmatis within RAW 264.7 macrophages; assay: Preventive effects (pre-incubation) in M. smegmatis-infected RAW 264.7 cells (CFU); assay type: cell-based, Mycobacterium smegmatis; conditions: for reduction of bacterial loads after pre-incubation, M. smegmatis / reduction of CFU counts after re-treatment, M. smegmatis: 15 μM; for reduction of CFU counts after re-treatment, M. smegmatis: pre-incubation and re-treatment, 12 h after infection
Experimental: For the second in vitro cellular infection test with M. smegmatis, RAW 264.7 were seeded in 96-well culture plates at a density of 1 × 10^4 cells/well in DMEM medium (with 10% FBS, without antibiotics) and incubated overnight at 37 °C with 5% CO2. Cells were pre-incubated with CP (15 μM), CA (30 μM), DE (15 μM), and DP (15 μM) for 8 h in DMEM medium. Infection of RAW 264.7 cells with M. smegmatis was performed at a multiplicity of infection of 1:1 for 2 h at 37 °C with 5% CO2 [20]. Infected RAW 264.7 were then lysed with 0.1% Triton–X100, and these suspensions were diluted and plated on LB agar. Remaining wells were then re-treated with the tested substances in DMEM medium. Macrophages were lysed after 12 h, and these suspensions were diluted and plated on LB prior to CFU counting. CFU/well was determined as previously described in the infection experiments using macrophages and M. smegmatis.

[5] = tested on: Mycobacterium smegmatis mc2155; assay: M. smegmatis susceptibility by CFU enumeration; assay type: cell-based; conditions: 24 h incubation, CFU
[6] = tested on: HepG2 cells; assay: Cytotoxicity on HepG2 cells (MTT); assay type: cell-based, human; conditions: 24 h; for effect on HepG2 cell viability: 30 to 120 µM, MTT; for IC50: Homo sapiens, HepG2, estimated
Experimental: Cytotoxicity was evaluated using the MTT method. For this purpose, two cell lines were tested: Vero E6 and HepG2. Both cell lines were seeded at 1 × 10^4 cells/well in 96-well microtiter plates and incubated overnight to adhere. The culture medium was carefully aspirated and replaced with 100 µL DMEM plus 100 µL of test compound solutions (CP, CA, and DE), yielding final concentrations ranging from 30 to 120 µM (1% DMSO, v/v). Cells were incubated with test compounds for 24 h at 37 °C in a 5% CO2 atmosphere. MTT solution (0.5 mg/mL) was subsequently added, and cells were incubated for an additional 3 h. The resulting formazan crystals were dried at room temperature for 24 h and dissolved in DMSO. Absorbance was measured at 570 nm (microplate reader EL800, BioTek, Winooski, VT, USA). Cell viability was calculated as previously described in the RAW 264.7 cell viability assay section.

[7] = 8 h pre-incubation, immediately after 2 h of infection

Row | SMILES | effect on M. tuberculosis CFU counts after pre-incubation and re-treatment ([1]; 30 μM) | reduction of bacterial counts, M. smegmatis within RAW 264.7 ([2]; 30 μM) | effect on M. tuberculosis in RAW 264.7 [3] | decrease of CFU counts after pre-incubation, M. smegmatis ([4]; 30 μM, 8 h pre-incubation, immediately after 2 h of infection) | inhibitory concentration against M. smegmatis [5] | effect on HepG2 cell viability [6] | IC50 [6] | effect on M. tuberculosis CFU counts after pre-incubation and re-treatment ([1]; 15 μM) | reduction of bacterial burden, M. smegmatis within RAW 264.7 [2] | effect on M. tuberculosis in RAW 264.7, lower concentrations ([3]; 7.5 µM and 3.25 µM, 24 h) | decrease in CFU counts, M. tuberculosis in RAW 264.7 ([3]; 15 μM, 24 h of incubation) | reduction of bacterial loads after pre-incubation, M. smegmatis [4, 7] | reduction of CFU counts after re-treatment, M. smegmatis [4] | effect of pre-incubation on M. tuberculosis bacterial loads ([1]; 15 μM, immediately after 3 h of infection)
1 | O=C(O)C1=Cc2c([nH]c3ccccc23)C(C(=O)O)=Cc2c1[nH]c1ccccc21 [CA, caulerpinic acid] | significant reductions in CFU counts | 0.243 log10 | neither DE nor CA showed inhibitory effects at either timepoint | 0.407 log10 | higher than 30 μM | did not significantly reduce cell viability | > 120 µM |  |  |  |  |  |  | 
2 | COC(=O)/C1=C/c2c([nH]c3ccccc23)/C(C(=O)OC)=C\c2c1[nH]c1ccccc21 [CP, Caulerpin] |  |  |  |  | higher than 15 μM | did not significantly reduce cell viability | > 120 µM | significant reductions in CFU counts | 0.230 log10 CFU | no inhibitory effect | 0.250 log10 | 0.360 log10 | 0.287 log10 | 
3 | CCOC(=O)/C1=C/c2c([nH]c3ccccc23)/C(C(=O)OCC)=C\c2c1[nH]c1ccccc21 [DE, (6E,13E)-diethyl 5,12-dihydrocycloocta[1,2-b:5,6-b′]diindole-6,13-dicarboxylate] |  |  | neither DE nor CA showed inhibitory effects at either timepoint |  | higher than 15 μM | did not significantly reduce cell viability | > 120 µM | significant reductions in CFU counts | 0.430 log10 CFU |  |  | 0.402 log10 | 0.182 log10 | significantly reduced bacterial loads
